Results as given in patent publication US11377425B1, “Small molecule modulators of IL-17” (LEO Pharma A/S, priority 2018, dated 2022).

target: T1, human IL-17AA (Homo sapiens, UniProt Q16552); assay: IL-8 release assay in human epithelial keratinocytes adult (HEKa); assay type: cell-based; details: HEKa cells, 3 ng/mL HEK-human IL-17AA + 10 ng/mL human TNFalpha; read-out: Rel EC50 IL-8 release assay
T1 construct: host or cells: HEK (human embryonic kidney) cells
T1 sequence (Q16552 24-155): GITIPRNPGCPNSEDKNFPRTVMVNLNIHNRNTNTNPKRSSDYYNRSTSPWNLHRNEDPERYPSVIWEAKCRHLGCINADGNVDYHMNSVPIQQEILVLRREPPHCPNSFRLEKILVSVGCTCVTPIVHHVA
In short: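 IL-8 release, quantified by HTRF and normalized to controls, reports IL-17 signaling in HEKa cells treated with compound plus final 3 ng/mL IL-17AA (HEK-derived) and 10 ng/mL TNF-alpha for 68-72 h; TNF-alpha-only wells set 100% inhibition. Four-parameter logistic fits (r^2>0.9) give relative IC50 and Emax; PrestoBlue flags cytotoxicity.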

Compound	EC50 [nM]
Cc1n[nH]c(C)c1-c1ccc(NC(=O)[C@@H](NC(=O)c2ncnn2C(C)C)C(C2CC2)C2CC2)cc1 [Example 162, N-[(1S)-1-(dicyclopropylmethyl)-2-[4-(3,5-dimethyl-1H-pyrazol-4-yl)anilino]-2-oxo-ethyl]-2-isopropyl-1,2,4-triazole-3-carboxamide]	100 to 1000
Cc1n[nH]c(C)c1-c1ccc(NC(=O)[C@@H](NC(=O)c2ncnn2C)C(C2CC2)C2CC2)cc1 [Example 163, N-[(1S)-1-(dicyclopropylmethyl)-2-[4-(3,5-dimethyl-1H-pyrazol-4-yl)anilino]-2-oxo-ethyl]-2-methyl-1,2,4-triazole-3-carboxamide]	> 1000
Cc1n[nH]c(C)c1-c1ccc(NC(=O)[C@@H](NC(=O)c2ccccc2)C(C2CC2)C2CC2)cc1 [Example 167, N-[(1S)-1-(dicyclopropylmethyl)-2-[4-(3,5-dimethyl-1H-pyrazol-4-yl)anilino]-2-oxo-ethyl]benzamide]	100 to 1000
Cc1n[nH]c(C)c1-c1ccc(NC(=O)[C@@H](NC(=O)C(C)(C)C)C(C2CC2)C2CC2)cc1 [Example 168, N-[(1S)-1-(dicyclopropylmethyl)-2-[4-(3,5-dimethyl-1H-pyrazol-4-yl)anilino]-2-oxo-ethyl]-2,2-dimethyl-propanamide]	> 1000
Cc1n[nH]c(C)c1-c1ccc(NC(=O)[C@@H](NC(=O)C2CCC2)C(C2CC2)C2CC2)cc1 [Example 169, N-[(1S)-1-(dicyclopropylmethyl)-2-[4-(3,5-dimethyl-1H-pyrazol-4-yl)anilino]-2-oxo-ethyl]cyclobutane carboxamide]	> 1000
Cc1n[nH]c(C)c1-c1ccc(NC(=O)[C@@H](NC(=O)C2CCCC2)C(C2CC2)C2CC2)cc1 [Example 170, N-[(1S)-1-(dicyclopropylmethyl)-2-[4-(3,5-dimethyl-1H-pyrazol-4-yl)anilino]-2-oxo-ethyl]cyclopentane carboxamide]	100 to 1000
Cc1n[nH]c(C)c1-c1ccc(NC(=O)[C@@H](NC(=O)c2ccnn2C(C)C#N)C(C2CC2)C2CC2)cc1 (stereo partly drawn) [Example 171, 2-(1-cyanoethyl)-N-[(1S)-1-(dicyclopropylmethyl)-2-[4-(3,5-dimethyl-1H-pyrazol-4-yl)anilino]-2-oxo-ethyl]pyrazole-3-carboxamide]	> 1000
Cc1n[nH]c(C)c1-c1ccc(NC(=O)[C@@H](NC(=O)c2ccn(C(C)C#N)n2)C(C2CC2)C2CC2)cc1 (stereo partly drawn) [Example 172, 1-(1-cyanoethyl)-N-[(1S)-1-(dicyclopropylmethyl)-2-[4-(3,5-dimethyl-1H-pyrazol-4-yl)anilino]-2-oxo-ethyl]pyrazole-3-carboxamide]	> 1000
Cc1n[nH]c(C)c1-c1ccc(NC(=O)[C@@H](NC(=O)c2ccnn2CCO)C(C2CC2)C2CC2)cc1 [Example 183, N-[(1S)-1-(dicyclopropylmethyl)-2-[4-(3,5-dimethyl-1H-pyrazol-4-yl)anilino]-2-oxo-ethyl]-2-(2-hydroxyethyl)pyrazole-3-carboxamide]	100 to 1000

Results, then the molecule that gave them:

EC50 [nM]	Compound
< 100	Cc1n[nH]c(C)c1-c1ccc(NC(=O)[C@@H](NC(=O)c2ccnn2[C@@H](C)CO)[C@@H]2C[C@H](C)C[C@H](C)C2)cc1 [Example 141, N-[(1S)-1-[(3R,55)-3,5-dimethylcyclohexyl]-2-[4-(3,5-dimethyl-1H-pyrazol-4-yl)anilino]-2-oxo-ethyl]-2-[(1S)-2-hydroxy-1-methyl-ethyl]pyrazole-3-carboxamide]
< 100	Cc1n[nH]c(C)c1-c1ccc(NC(=O)[C@@H](NC(=O)c2ccnn2C)C2C[C@@H](C)C[C@@H](C)C2)cc1 (stereo partly drawn) [Example 146, N-[(1S)-1-[(3R,5S)-3,5-dimethylcyclohexyl]-2-[4-(3,5-dimethyl-1H-pyrazol-4-yl)anilino]-2-oxo-ethyl]-2-methyl-pyrazole-3-carboxamide]
< 100	Cc1n[nH]c(C)c1-c1ccc(NC(=O)[C@@H](NC(=O)c2ccnn2C)C2C[C@@H](C)C[C@@H](C)C2)cc1 (stereo partly drawn) [Example 147, N-[(1S)-1-[(3R,5S)-3,5-dimethylcyclohexyl]-2-[4-(3,5-dimethyl-1H-pyrazol-4-yl)anilino]-2-oxo-ethyl]-2-methyl-pyrazole-3-carboxamide]
< 100	Cc1n[nH]c(C)c1-c1ccc(NC(=O)[C@@H](NC(=O)c2cnnn2C(C)C)[C@H]2CC[C@H](C)CC2)cc1 [Example 148, N-[(1S)-2-[4-(3,5-dimethyl-1H-pyrazol-4-yl)anilino]-1-(4-methylcyclohexyl)-2-.oxo-ethyl]-3-isopropyl-tnazole-4-carboxamide]
100 to 1000	CCn1nncc1C(=O)N[C@H](C(=O)Nc1ccc(-c2c(C)n[nH]c2C)cc1)[C@H]1CC[C@H](C)CC1 [Example 149, N-[(1S)-2-[4-(3,5-dimethyl-1H-pyrazol-4-yl)anilino]-1-(4-methylcyclohexyl)-2-oxo-ethyl]-3-ethyl-triazole-4-carboxamide]
< 100	Cc1n[nH]c(C)c1-c1ccc(NC(=O)[C@@H](NC(=O)c2ccnn2CCS(C)(=O)=O)C(C2CC2)C2CC2)cc1 [Example 158, N-[(1S)-1-(dicyclopropylmethyl)-2-[4-(3,5-dimethyl-1H-pyrazol-4-yl)anilino]-2-oxo-ethyl]-2-(2-methylsulfonylethyl) pyrazole-3-carboxamide]
< 100	Cc1n[nH]c(C)c1-c1ccc(NC(=O)[C@@H](NC(=O)c2ccnn2CCCO)C(C2CCC2)C2CCC2)cc1 [Example 166, N-[(1S)-1-[di(cyclobutyl)methyl]-2-[4-(3,5-dimethyl-1H-pyrazol-4-yl)anilino]-2-oxo-ethyl]-2-(3-hydroxypropyl)pyrazole-3-carboxamide]
< 100	Cc1n[nH]c(C)c1-c1ccc(NC(=O)[C@@H](NC(=O)c2ccnn2CCC(O)C(F)(F)F)C(C2CC2)C2CC2)cc1 (stereo partly drawn) [Example 179, N-[(1S)-1-(dicyclopropylmethyl)-2-[4-(3,5-dimethyl-1H-pyrazol-4-yl)anilino]-2-oxo-ethyl]-2-(4,4,4-trifluoro-3-hydroxy-butyl)pyrazole-3-carboxamide]
< 100	CCn1nccc1C(=O)N[C@H](C(=O)Nc1ccc(-c2c(C)n[nH]c2C)cc1)[C@@H]1CC2(CC2)CCC1(F)F [Example 180, N-[(1S)-1-[(7S)-6,6-difluorospiro[2.5]octan-7-yl]-2-[4-(3,5-dimethyl-1H-pyrazol-4-yl)anilino]-2-oxo-ethyl]-2-ethyl-pyrazole-3-carboxamide]
< 100	Cc1n[nH]c(C)c1-c1ccc(NC(=O)[C@@H](NC(=O)c2ccnn2C(C)C)[C@@H]2CC3(CC3)CCC2(F)F)cc1 [Example 181, N-[(1S)-1-[(7S)-6,6-difluorospiro[2.5]octan-7-yl]-2-[4-(3,5-dimethyl-1H-pyrazol-4-yl)anilino]-2-oxo-ethyl]-2-isopropyl-pyrazole-3-carboxamide]
< 100	Cc1n[nH]c(C)c1-c1ccc(NC(=O)[C@@H](NC(=O)c2ccnn2CC(F)(F)F)C(C2CC2)C2CC2)cc1 [Example 184, N-[(1S)-1-(dicyclopropylmethyl)-2-[4-(3,5-dimethyl-1H-pyrazol-4-yl)anilino]-2-oxo-ethyl]-2-(2,2,2-trifluoroethyl)pyrazole-3-carboxamide]
< 100	Cc1n[nH]c(C)c1-c1ccc(NC(=O)[C@@H](NC(=O)c2ccnn2CCC(C)O)C(C2CC2)C2CC2)cc1 (stereo partly drawn) [Example 185, N-[(1S)-1-(dicyclopropylmethyl)-2-[4-(3,5-dimethyl-1H-pyrazol-4-yl)anilino]-2-oxo-ethyl]-2-(3-hydroxybutyl)pyrazole-3-carboxamide]
